Test results published in patent publication US20220323356A1, “METAL (HYDR)OXIDE COMPOSITE COMPRISING POORLY SOLUBLE DRUG, METHOD FOR PREPARING SAME, AND PHARMACEUTICAL COMPOSITION COMPRISING SAME” (priority 2020, published 2022).

What was measured:
[1] = In-vivo pharmacokinetic analysis of calcined metal (hydr)oxide-docetaxel compositions, single oral administration; conditions: rat, 40 mg/kg
[2] = in vivo; cited from earlier work

Compound: CC(=O)O[C@@]12CO[C@@H]1C[C@H](O)[C@@]1(C)C(=O)[C@H](O)C3=C(C)[C@@H](OC(=O)[C@H](O)[C@@H](NC(=O)OC(C)(C)C)c4ccccc4)C[C@@](O)([C@@H](OC(=O)c4ccccc4)[C@H]21)C3(C)C [Docetaxel]
- AUC(0-t) [1]: 47.5 ng·h/mL
- Tmax [1]: 0.5 h
- half-life [1]: 9.41 h
- Cmax ([1]; Cmax, Docetaxel PO 40 mg/kg, rats): 5.25 ng/mL
- bioavailability (%) [2]: 8%
